This is an account of results in patent US20200315960A1, “DRUG DELIVERY DEVICE AND METHOD” (BIORINGS LLC, priority 2019, published 2020).

For test [1], the system named is human sperm. Put plainly: Effect of various concentrations on the motility of human sperm. Format: cell-based. To be noted: for concentration shown to be spermiostatic: motility of human sperm; for spermiostatic effects: lower concentrations of albumin and dextran. The text has this: The effects of various concentrations of magnesium chloride, calcium chloride, ferrous sulfate, copper sulfate, and ferrous gluconate on the motility of human sperm were studied.

The nature of test [2]: Effect on viscosity of cervical mucus. To be noted: concentrations from 0.310% to a range of 1-2.5%.

For `[Cl-].[Cl-].[Mg+2]` [magnesium chloride], the “concentration shown to be spermiostatic” value in test [1] is on record as 35 mM.

Turning to ferrous gluconate, the figures for the immobilization of sperm in test [1] (25 mM solutions) and in test [1] (37.5 mM solutions) were 97.4% and “completely immobilized all the sperm”, respectively. In test [1], the “concentration shown to be spermiostatic” value is recorded as 12.5 mM.

The compound dextran registered a sperm immobilized in test [1] (1.25% solution of dextran) of about 95%. For the same compound, the spermiostatic effects result in test [1] was “not significant”. Consider Ferrous sulfate, for which the “concentration that completely arrested the motility of human sperm” value in test [1] (complete arrest of motility) is 10 mM. As to albumin, the sperm completely immobilized in test [1] (20% albumin) and in test [1] (40% albumin) was about 97% in each case. Further, the sperm motility result in test [1] (albumin concentration 10%) is listed as “decreased sperm motility almost close to that of 12.5 mM concentration of ferrous gluconate”. Also, in test [1], the spermiostatic effects entry is reported as “not significant”. Turning to `O=C1O[C@H]([C@@H](O)CO)C(O)=C1O` [L-ascorbic acid], in test [2], the “overall viscosity of the mucus” value is listed as “increases in direct relationship with increasing concentrations”. Consider `[Ca+2].[Cl-].[Cl-]` [Calcium chloride], for which the “concentration shown to be spermiostatic” value in test [1] is reported as 25 mM. In the case of `O=S(=O)([O-])[O-].[Cu+2]` [Copper sulfate], the results for the immobilization of sperm in test [1] (25 mM solutions) and in test [1] (37.5 mM solutions) were 93.3% and “completely immobilized all the sperm”, respectively. The “concentration shown to be spermiostatic” value in test [1] amounted to 6.25 mM. In the case of “ferrous gluconate [dihydrate form of ferrous gluconate]”, the “onset of spermiostatic effect” value in test [1] (in the presence of the dihydrate form) is reported as “immediate”.
